From US4315858A, “Antibacterial amide compounds” (Warner-Lambert Company, priority 1980, dated 1982) come the findings set out here.

≈ marks a conversion by molar mass, not a printed value.

Holding throughout (assay type): cell-based
Test [1] concerns Pseudomonas aeruginosa #28. As to the kind of experiment: Minimal inhibitory concentration against Pseudomonas aeruginosa #28.
The subject of the next test is Entero. cloacae. As to the kind of experiment: Minimal inhibitory concentration against Entero. cloacae. The conditions noted are these: Enterobacter cloacae.
The next test has as its system Serr. marces. The test can be described thus: Minimal inhibitory concentration against Serr. marces.
The next test relates to Klebs. pneu. As to the kind of experiment: Minimal inhibitory concentration against Klebs. pneu.
Another test relates to Staph. aureus S18713. The test can be described thus: Minimal inhibitory concentration against Staph. aureus S18713. The conditions noted are these: Staphylococcus aureus.

In the case of `CC(=O)Nc1ccc(-c2ccc(C(=O)N[C@@H](C(=O)N[C@@H]3C(=O)N4[C@@H]3SC(C)(C)[C@@H]4C(=O)O)c3ccccc3)c(=O)[nH]2)cc1` [Example 1, N-[6-[4-(Acetylamino)phenyl]-1,2-dihydro-2-oxonicotinoyl]-ampicillin], the MIC (commonly the lowest concentration that inhibits growth of the organism) in test [1] was 3.1 µg/mL (≈ 5.14 µM); with Entero. cloacae it was 12.5 µg/mL (≈ 20.7 µM); with Serr. marces., 25 µg/mL (≈ 41.4 µM); in the test with Klebs. pneu. it was 6.3 µg/mL (≈ 10.4 µM); in the test with Staph. aureus S18713, 100 µg/mL (≈ 166 µM).
On to `CC(=O)Nc1ccc(-c2ccc(C(=O)N[C@@H](C(=O)N[C@@H]3C(=O)N4[C@@H]3SC(C)(C)[C@@H]4C(=O)O)c3ccc(O)cc3)c(=O)[nH]2)cc1` [Example 2, N-[6-[4-(acetylamino)phenyl]-1,2-dihydro-2-oxonicotinoyl]amoxicillin], for which the minimal inhibitory concentration (MIC) in test [1] was 3.1 µg/mL (≈ 5 µM); against Entero. cloacae it was 6.3 µg/mL (≈ 10.2 µM); with Serr. marces. it was 25 µg/mL (≈ 40.3 µM); in the test with Klebs. pneu. it was 12.5 µg/mL (≈ 20.2 µM); against Staph. aureus S18713, 200 µg/mL (≈ 323 µM).
With `CC1(C)S[C@@H]2[C@H](NC(=O)[C@H](NC(=O)c3ccc(-c4ccc(NC(=O)C(F)(F)F)cc4)[nH]c3=O)c3ccccc3)C(=O)N2[C@H]1C(=O)O` [Example 3, N-[6-[4(Trifluoroacetylamino)phenyl]-1,2-dihydro-2-oxonicotinoyl]ampicillin], the MIC in test [1] is 6.3 µg/mL (≈ 9.58 µM); with Entero. cloacae it was 3.1 µg/mL (≈ 4.71 µM); in the test on Serr. marces., 25 µg/mL (≈ 38 µM); with Klebs. pneu. it was 6.3 µg/mL (≈ 9.58 µM); in the test with Staph. aureus S18713, 200 µg/mL (≈ 304 µM).
As for `CC1(C)S[C@@H]2[C@H](NC(=O)[C@H](NC(=O)c3ccc(-c4ccc(NC(=O)C(F)(F)F)cc4)[nH]c3=O)c3ccc(O)cc3)C(=O)N2[C@H]1C(=O)O` [Example 4, N-[6-[4-(Trifluoroacetylamino)phenyl]-1,2-dihydro-2-oxonicotinoyl]amoxicillin], the MIC stood at 1.6 µg/mL (≈ 2.38 µM) in test [1]; 3.1 µg/mL (≈ 4.6 µM) against Entero. cloacae; 100 µg/mL (≈ 148 µM) against Serr. marces.; 3.1 µg/mL (≈ 4.6 µM) in the test with Klebs. pneu.; 100 µg/mL (≈ 148 µM) with Staph. aureus S18713.
As to `CC1(C)S[C@@H]2[C@H](NC(=O)[C@H](NC(=O)c3ccc(-c4ccc(NC(=O)CC#N)cc4)[nH]c3=O)c3ccc(O)cc3)C(=O)N2[C@H]1C(=O)O` [Example 5], the MIC in test [1] amounted to 1.6 µg/mL (≈ 2.48 µM); in the test on Entero. cloacae, 1.6 µg/mL (≈ 2.48 µM); with Serr. marces. it was 200 µg/mL (≈ 310 µM); against Klebs. pneu., 3.1 µg/mL (≈ 4.81 µM); against Staph. aureus S18713 it was 100 µg/mL (≈ 155 µM).
With `CC1(C)S[C@@H]2[C@H](NC(=O)[C@H](NC(=O)c3ccc(-c4ccc(NC(=O)Cc5nn[nH]n5)cc4)[nH]c3=O)c3ccc(O)cc3)C(=O)N2[C@H]1C(=O)O` [Example 6], the minimal inhibitory concentration (MIC) in test [1] was 3.1 µg/mL (≈ 4.51 µM); against Entero. cloacae, 1.6 µg/mL (≈ 2.33 µM); in the test on Serr. marces., 1.6 µg/mL (≈ 2.33 µM); against Klebs. pneu. it was 12.5 µg/mL (≈ 18.2 µM); in the test on Staph. aureus S18713, greater than 50 µg/mL.
Turning to `CC(=O)C(=O)Nc1ccc(-c2ccc(C(=O)N[C@@H](C(=O)N[C@@H]3C(=O)N4[C@@H]3SC(C)(C)[C@@H]4C(=O)O)c3ccc(O)cc3)c(=O)[nH]2)cc1` [Example 7, N-[6-[4-(1,2-Dioxopropylamino)phenyl]-1,2-dihydro-2-oxonicotinoyl]amoxicillin], the minimum inhibitory concentration (MIC) in test [1] was found to be 1.6 µg/mL (≈ 2.47 µM); against Entero. cloacae it was 3.1 µg/mL (≈ 4.79 µM); against Serr. marces., 3.1 µg/mL (≈ 4.79 µM); against Klebs. pneu., 12.5 µg/mL (≈ 19.3 µM); against Staph. aureus S18713, 25 µg/mL (≈ 38.6 µM).
Consider `CC1(C)S[C@@H]2[C@H](NC(=O)[C@H](NC(=O)c3ccc(-c4ccc(NC(=O)CSCC(F)(F)F)cc4)[nH]c3=O)c3ccc(O)cc3)C(=O)N2[C@H]1C(=O)O` [Example 8], for which the MIC in test [1] was 0.8 µg/mL (≈ 1.09 µM); in the test with Entero. cloacae, 6.3 µg/mL (≈ 8.59 µM); against Serr. marces., 0.4 µg/mL (≈ 0.545 µM); in the test with Klebs. pneu., 3.1 µg/mL (≈ 4.22 µM); against Staph. aureus S18713 it was greater than 50 µg/mL.
In the case of `CC1(C)S[C@@H]2[C@H](NC(=O)[C@H](NC(=O)c3ccc(-c4ccc(NC(=O)CSCC#N)cc4)[nH]c3=O)c3ccc(O)cc3)C(=O)N2[C@H]1C(=O)O` [Example 9], the MIC was 1.6 µg/mL (≈ 2.32 µM) in test [1]; 12.5 µg/mL (≈ 18.1 µM) against Entero. cloacae; 1.6 µg/mL (≈ 2.32 µM) against Serr. marces.; 6.3 µg/mL (≈ 9.12 µM) with Klebs. pneu.; greater than 50 µg/mL in the test on Staph. aureus S18713.
For the compound `CCOC(=O)C(=O)Nc1ccc(-c2ccc(C(=O)N[C@@H](C(=O)N[C@@H]3C(=O)N4[C@@H]3SC(C)(C)[C@@H]4C(=O)O)c3ccc(O)cc3)c(=O)[nH]2)cc1` [Example 10, N-[6-[4-[(2-Ethoxy-1,2-dioxoethyl)amino]phenyl]-1,2-dihydro-2-oxonicotinoyl]amoxicillin], the minimum inhibitory concentration (MIC) stood at 6.3 µg/mL (≈ 9.3 µM) in test [1]; 1.6 µg/mL (≈ 2.36 µM) with Entero. cloacae; 200 µg/mL (≈ 295 µM) with Serr. marces.; 6.3 µg/mL (≈ 9.3 µM) against Klebs. pneu.; 50 µg/mL (≈ 73.8 µM) against Staph. aureus S18713.
Consider `CC1(C)S[C@@H]2[C@H](NC(=O)[C@H](NC(=O)c3ccc(-c4ccc(NC(=O)OCc5ccccc5)cc4)[nH]c3=O)c3ccccc3)C(=O)N2[C@H]1C(=O)O` [Example 11, N-[6-[4-(Benzyloxycarbonylamino)phenyl]-1,2-dihydro-2-oxonicotinoyl]ampicillin], for which the minimal inhibitory concentration (MIC) is 1.6 µg/mL (≈ 2.3 µM) in test [1]; 6.3 µg/mL (≈ 9.05 µM) in the test on Entero. cloacae; 12.5 µg/mL (≈ 18 µM) against Serr. marces.; 0.8 µg/mL (≈ 1.15 µM) against Klebs. pneu.; 50 µg/mL (≈ 71.9 µM) against Staph. aureus S18713.
Take `COC(=O)Nc1ccc(-c2ccc(C(=O)N[C@@H](C(=O)N[C@@H]3C(=O)N4[C@@H]3SC(C)(C)[C@@H]4C(=O)O)c3ccc(O)cc3)c(=O)[nH]2)cc1` [Example 12, N-[6-[4-(Methoxycarbonylamino)phenyl]-1,2-dihydro-2-oxonicotinoyl]amoxicillin]: the MIC is 1.6 µg/mL (≈ 2.52 µM) in test [1]; 1.6 µg/mL (≈ 2.52 µM) in the test with Entero. cloacae; 25 µg/mL (≈ 39.3 µM) against Serr. marces.; 3.1 µg/mL (≈ 4.88 µM) with Klebs. pneu.; 100 µg/mL (≈ 157 µM) in the test with Staph. aureus S18713.
In the case of `CC1(C)S[C@@H]2[C@H](NC(=O)[C@H](NC(=O)c3ccc(-c4ccc(NC(=O)Cc5ccccc5)cc4)[nH]c3=O)c3ccc(O)cc3)C(=O)N2[C@H]1C(=O)O` [Example 13, N-[6-[4-(Phenylacetylamino)phenyl]-1,2-dihydro-2-oxonicotinoyl]amoxicillin], the minimum inhibitory concentration (MIC) in test [1] stood at 1.6 µg/mL (≈ 2.3 µM); with Entero. cloacae it was 1.6 µg/mL (≈ 2.3 µM); with Serr. marces. it was 50 µg/mL (≈ 71.9 µM); against Klebs. pneu. it was 3.1 µg/mL (≈ 4.46 µM); in the test with Staph. aureus S18713, 50 µg/mL (≈ 71.9 µM).
Regarding `CCNC(=O)Nc1ccc(-c2ccc(C(=O)N[C@@H](C(=O)N[C@@H]3C(=O)N4[C@@H]3SC(C)(C)[C@@H]4C(=O)O)c3ccc(O)cc3)c(=O)[nH]2)cc1` [Example 14, N-[6-[4-(N-Ethylcarbamoylamino)phenyl]-1,2-dihydro-2-oxonicotinoyl]amoxicillin], the MIC in test [1] is 0.8 µg/mL (≈ 1.23 µM); against Entero. cloacae, 3.1 µg/mL (≈ 4.78 µM); against Serr. marces., 0.8 µg/mL (≈ 1.23 µM); against Klebs. pneu. it was 6.3 µg/mL (≈ 9.71 µM); with Staph. aureus S18713 it was 50 µg/mL (≈ 77.1 µM).
Take `CC(=O)Nc1cccc(-c2ccc(C(=O)N[C@@H](C(=O)N[C@@H]3C(=O)N4[C@@H]3SC(C)(C)[C@@H]4C(=O)O)c3ccccc3)c(=O)[nH]2)c1` [Example 15, N-[6-[3-(Acetylamino)phenyl]-1,2-dihydro-2-oxonicotinoyl]ampicillin]: the minimal inhibitory concentration (MIC) in test [1] is 6.3 µg/mL (≈ 10.4 µM); in the test on Entero. cloacae, 6.3 µg/mL (≈ 10.4 µM); in the test on Serr. marces., 12.5 µg/mL (≈ 20.7 µM); with Klebs. pneu., 3.1 µg/mL (≈ 5.14 µM); with Staph. aureus S18713 it was greater than 200 µg/mL.
